Tested on: Cladosporium cucumerinum
Assay: Antifungal activity against phytopathogenic Cladosporium cucumerinum by bioautographic TLC assay
Type: functional

Row | SMILES | MIC [µg]
1 | O=C1C=CC[C@@H](C[C@H](O)CCCCc2ccccc2)O1 | 1
2 | Clc1ccc(COC(Cn2ccnc2)c2ccc(Cl)cc2Cl)c(Cl)c1 (configuration not stated) [MICONAZOLE] | 1

From ChEMBL document CHEMBL1156091, “Stereoselective total synthesis of a potent natural antifungal compound (6S)-5,6,dihydro-6-[(2R)-2-hydroxy-6-phenyl hexyl]-2H-pyran-2-one” (2009)
